Experimental data: US20190014776A1 (priority 2017, published 2019)

Type: physicochemical
Settings: relative to tank mix of CLARITY and CONTROLMAX; dicamba 1.2 wt. % a.e., glyphosate 2.4 wt. % a.e.; 35° C., 40% RH, 24 hours
Experimental: The dicamba volatility from each composition was measured by the procedure described in “A Method to Determine the Relative Volatility of Auxin Herbicide Formulations” in ASTM publication STP1587 entitled “Pesticide Formulation and Delivery Systems: 35th Volume, Pesticide Formulations, Adjuvants, and Spray Characterization in 2014, published 2016, which is incorporated herein by reference.
Humidomes obtained from Hummert International (Part Nos 14-3850-2 for humidomes and 11-3050-1 for 1020 flat tray) were modified by cutting a 2.2 cm diameter hole on one end approximately 5 cm from the top to allow for insertion of a glass air sampling tube (22 mm OD) containing a polyurethane foam (PUF) filter. The sampling tube was secured with a VITON o-ring on each side of the humidome wall. The air sampling tube external to the humidome was fitted with tubing that was connected to a vacuum manifold immediately prior to sampling.
The flat tray beneath the humidome was filled with 1 liter of sifted dry or wet 50/50 soil (50% Redi-Earth and 50% US 10 Field Soil) to a depth of about 1 cm. […]
The flat tray bottom containing the auxin herbicide formulation on soil was covered with the humidome lid and the lid was secured with clamps. […] The PUF filter was extracted with 20 mL of methanol and the solution was analyzed for the auxin herbicide concentration using LC-MS methods known in the art.

CCCC[N+](CCCC)(CCCC)CCCC.COc1c(Cl)ccc(Cl)c1C(=O)[O-] [TBA Dicamba, tetrabutylammonium (TBA) dicamba]
Volatility Reduction: 99.5%
